In patent publication US20210040089A1, “KRAS MUTANT PROTEIN INHIBITORS” (Jacobio Pharmaceuticals Co., Ltd., priority 2019, published 2021):

How the values were obtained:
[1] = target: T1, KRAS G12C (Homo sapiens, UniProt P01116, G12C); experiment: SOS1 catalyzed nucleotide exchange assay (TR-FRET); assay type: biochemical; conditions: GDP-loaded HIS-KRAS(G12C), 1 hour pre-incubation with compound
T1 construct: HIS-KRAS (G12C, aa 2-185, Sino biological); purchased Sino biological
Method: 1. SOS1 Catalyzed Nucleotide Exchange Assay
HIS-KRAS (G12C, aa 2-185, Sino biological) was diluted to […] EDTA buffer (20 mM HEPES, pH 7.4, 50 mM NaCl, 10 mM EDA, 0.01% (v/v) Tween-20) and incubated for 30 min at 25° C. The EDTA pretreated HIS-KRAS(G12C) was diluted to 12 nM in assay buffer (25 mM HEPES, pH 7.4, 120 mM NaCl, 5 mM MgCl2, 1 mM DTI, 0.01% (v/v) Tween 20, 0.1% (w/v) BSA) containing 120 nM GDP(Sigma) and Mab Anti 6HIS-Tb cryptate Gold(Cisbio) and incubated for 1 hour at 25° C. to prepare GDP-loaded HIS-KRAS(G12C). The GDP-loaded HIS-KRAS(G12C) was pre-incubation with diluted compounds in a 384-well plate (Greiner) for 1 hour, then purified SOS 1ExD (Flag tag, aa 564-1049) and BODIPY™FL GTP (Invitrogen) were added to the assay wells (Final concentration: 3 nM HIS-KRAS(G12C), 2 μM SOS1 ExD, 80 nM BODIPY™FL GTP, 21 ng/mL MAb Anti 6HS-Tb cryptate Gold) and incubated for 4 hours at 25° C. TR-FRET signals were then read on Tecan Spark multimode microplate reader. The parameters were F486: Excitation 340 (35) nm, Emission 486 (10) nm, Lag time 100 μs, Integration time […]; F515: Excitation 340 (35) nm, Emission 515 (10) nm, Lag time […], Integration time 200 s. TR-FRET ratios for each individual wells were calculated by equation: TR-FRET ratio=(Signal F515/Signal F486)*10000. Then the data were analyzed using a 4-parameter logistic model to calculate IC50 values.

[2] = system: Phospho-ERK1/2(THR202/TYR204) in NCI-H358 cells express KRAS G12C; experiment: Phospho-ERK1/2(THR202/TYR204) HTRF assay; assay type: cell-based; conditions: Homo sapiens; NCI-H358, 2 hours incubation; read-out: p-ERK inhibition in NCI-H358 IC50
Method: NCI-H358 cells express KRAS G12C were cultured in RPMI 1640 medium (Gibco) containing 10% fetal bovine serum (Gibco). Cells in culture medium were plated in 96-well plates at a concentration of 40,000 cells/well and allowed to attach overnight. The next day, culture medium was removed and added compounds diluted in assay medium (RPMI 1640, 0.1% EFBS). After 2 hours incubation in a 37° C./5% CO2 cell incubator, the assay medium was removed, then 50 μL of 1× supplemented lysis buffer (Cisbio) was added and the plates were incubated at 25° C. for 45 min with shaking. 10 μL of cell lysates from the 96-well plates were transferred to a 384-well plate (Greiner) containing 2.5 µL/well HTRF® pre-mixed antibodies (Cisbio 64AERPEH).
Incubate 4 hours at 25° C. and then read HTRF signals on Tecan Spark multimode microplate reader. The data were analyzed using a 4-parameter logistic model to calculate IC50 values.

[3] = system: NCI-H358 cells express KRAS G12C; experiment: Cell growth inhibition assay (CCK-8); assay type: cell-based; conditions: Homo sapiens, 144 h; NCI-H358, 6 days incubation
Method: 3. Cell Growth inhibition assay
NCI-H358 cells express KRAS G12C were cultured in RPMI 1640 medium (Gibco) containing 10% fetal bovine serum (Gibco). Cells in culture medium were plated in 96-well plates at a concentration of 3000 cells/well ([…]) and allowed to attach overnight. The next day, compounds were diluted in culture medium and added to the plates. After 6 days incubation in a 37° C./5% CO2 cell incubator, the medium was removed, then 100 μL of 1×CCK-8 (MCE) in culture medium was added in each well. The plates were incubated 1.5-2 hours in a 37° C./5% CO2 cell incubator. OD450 signals were read on Tecan Spark multimode microplate reader and analyzed using a 4-parameter logistic model to calculate IC50 values.

T1 sequence (P01116 2-185 isoform P01116-2 G12C): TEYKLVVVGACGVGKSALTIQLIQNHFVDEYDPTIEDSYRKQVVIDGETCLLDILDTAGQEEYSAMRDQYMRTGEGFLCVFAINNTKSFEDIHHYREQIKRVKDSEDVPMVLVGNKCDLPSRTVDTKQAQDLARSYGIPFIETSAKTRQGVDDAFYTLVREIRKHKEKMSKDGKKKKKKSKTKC

C=CC(=O)N1CCN(c2nc(OCC3CCCC3N(C)C)nc3c2CCN(c2cccc4cccc(C)c24)C3)CC1CC#N (stereo not drawn) [Compound 23, 2-(1-acryloyl-4-(2-((2-(dimethylamino)cyclopentyl)methoxy)-7-(8-methylnaphthalen-1-yl)-5,6,7,8-tetrahydropyrido[3,4-d]pyrimidin-4-yl)piperazin-2-yl)acetonitrile]
IC50 [1]: 9.45 nM
IC50 [2]: 112 nM
IC50 [3]: 66.8 nM

C=CC(=O)N1CCN(c2nc(OCC3(CN(C)C)CC3)nc3c2CCN(c2cccc4ccsc24)C3)CC1CC#N (stereo not drawn) [Compound 50, 2-(1-acryloyl-4-(7-(benzo[b]thiophen-7-yl)-2-((1-((dimethylamino)methyl)cyclopropyl)methoxy)-5,6,7,8-tetrahydropyrido[3,4-d]pyrimidin-4-yl)piperazin-2-yl)acetonitrile]
IC50 [1]: 8.66 nM
IC50 [2]: 83.8 nM
IC50 [3]: 202 nM

C=C(F)C(=O)N1CCN(c2nc(OCC3(CN4CCC4)CC3)nc3c2CCN(c2cccc4cccc(C)c24)C3)CC1CC#N (stereo not drawn) [Compound 73, 2-(4-(2-((1-(azetidin-1-ylmethyl)cyclopropyl)methoxy)-7-(8-methylnaphthalen-1-yl)-5,6,7,8-tetrahydropyrido[3,4-d]pyrimidin-4-yl)-1-(2-fluoroacryloyl)piperazin-2-yl)acetonitrile]
IC50 [1]: 17 nM
IC50 [2]: 963 nM
IC50 [3]: 883 nM

C=CC(=O)N1CCN(c2nc(OCC3(CN(C)C)CC3)nc3c2CCN(c2cccc4cccc(Cl)c24)C3)CC1CC#N (stereo not drawn) [Compound 46, 2-(1-acryloyl-4-(7-(8-chloronaphthalen-1-yl)-2-((1-((dimethylamino)methyl)cyclopropyl)methoxy)-5,6,7,8-tetrahydropyrido[3,4-d]pyrimidin-4-yl)piperazin-2-yl)acetonitrile]
IC50 [1]: 2.57 nM
IC50 [2]: 14.7 nM
IC50 [3]: 26.9 nM

C=CC(=O)N1CCN(c2nc(OCC3CCC(N(C)C)C3)nc3c2CCN(c2cccc4cccc(C)c24)C3)CC1CC#N (stereo not drawn) [Compound 24, 2-(1-acryloyl-4-(2-((3-(dimethylamino)cyclopentyl)methoxy)-7-(8-methylnaphthalen-1-yl)-5,6,7,8-tetrahydropyrido[3,4-d]pyrimidin-4-yl)piperazin-2-yl)acetonitrile]
IC50 [1]: 20.1 nM
IC50 [2]: 237 nM
IC50 [3]: 93.6 nM

C=C(F)C(=O)N1CCN(c2nc(OCC3(CN(CC)CC)CC3)nc3c2CCN(c2cccc4cccc(C)c24)C3)CC1CC#N (stereo not drawn) [Compound 76, 2-(4-(2-((1-((diethylamino)methyl)cyclopropyl)methoxy)-7-(8-methylnaphthalen-1-yl)-5,6,7,8-tetrahydropyrido[3,4-d]pyrimidin-4-yl)-1-(2-fluoroacryloyl)piperazin-2-yl)acetonitrile]
IC50 [1]: 11.7 nM
IC50 [2]: 354 nM
IC50 [3]: 421 nM

C=CC(=O)N1CCN(c2nc(OCC3(CN4CCCC4)CC3)nc3c2CCN(c2cccc(Cl)c2C(F)(F)F)C3)CC1CC#N (stereo not drawn) [Compound 38, 2-(1-acryloyl-4-(7-(3-chloro-2-(trifluoromethyl)phenyl)-2-((1-(pyrrolidin-1-ylmethyl)cyclopropyl)methoxy)-5,6,7,8-tetrahydropyrido[3,4-d]pyrimidin-4-yl)piperazin-2-yl)acetonitrile]
IC50 [1]: 5.24 nM
IC50 [2]: 66 nM
IC50 [3]: 60.2 nM

C=C(F)C(=O)N1CCN(c2nc(OCC3(CN4CCN(C)CC4)CC3)nc3c2CCN(c2cccc4cccc(C)c24)C3)CC1CC#N (stereo not drawn) [Compound 71, 2-(1-(2-fluoroacryloyl)-4-(7-(8-methylnaphthalen-1-yl)-2-((1-((4-methylpiperazin-1-yl)methyl)cyclopropyl)methoxy)-5,6,7,8-tetrahydropyrido[3,4-d]pyrimidin-4-yl)piperazin-2-yl)acetonitrile]
IC50 [1]: 7.57 nM
IC50 [2]: 505 nM
IC50 [3]: 369 nM
